Test system: chronic lymphocytic leukemia (CLL) samples classified by expression subtype (Ec-i, EC-m1, EC-m2, EC-m3, EC-m4, EC-o, EC-u1, EC-u2)
Experiment: Ex-vivo drug sensitivity (percent viability) of CLL samples compared between expression subtypes (ECs); on Mean viability in the EC: test concentration or dose not given here; on Mean viability in the other ECs: test concentration or dose not given here
Type: cell-based
Text: An analysis was completed to determine whether the expression clusters (ECs) can be used to predict the resistance and sensitivity of different chronic lymphocytic leukemias to various drugs. […] The expression subtypes were then used with the drug sensitivity data to compare the percent […] of samples in each expression cluster to the percent viability of samples in all other expression clusters.

Row | Compound | Mean viability in the other ECs (all ECs other than EC-i) | Mean viability in the other ECs (all ECs other than EC-m3) | Mean viability in the other ECs (all ECs other than EC-m4) | Mean viability in the other ECs (all ECs other than EC-u1) | Mean viability in the other ECs (all ECs other than EC-u2) | Drug response associated with the EC (expression cluster EC-i) | Mean viability in the EC (expression cluster EC-i) | Drug response associated with the EC (expression cluster EC-m3) | Mean viability in the EC (expression cluster EC-m3) | Drug response associated with the EC (expression cluster EC-m4) | Mean viability in the EC (expression cluster EC-m4) | Drug response associated with the EC (expression cluster EC-u1) | Mean viability in the EC (expression cluster EC-u1) | Drug response associated with the EC (expression cluster EC-u2) | Mean viability in the EC (expression cluster EC-u2) | Mean viability in the other ECs (all ECs other than EC-m1) | Drug response associated with the EC (expression cluster EC-m1) | Mean viability in the EC (expression cluster EC-m1)
1 | Cn1cnc2c(F)c(Nc3ccc(Br)cc3Cl)c(C(=O)NOCCO)cc21 [selumetinib] | 0.92 | 0.93 | 0.92 | 0.94 | 0.94 | Resistant | 0.97 | Resistant | 0.97 | Resistant | 0.97 | Sensitive | 0.91 | Sensitive | 0.79 | – | – | –
2 | C=CC(=O)Nc1cccc(Nc2nc(Nc3ccc(OCCOC)cc3)ncc2F)c1 [spebrutinib] | – | – | 0.95 | 0.98 | 0.96 | – | – | – | – | – | 1.01 | – | 0.92 | – | 0.88 | – | – | –
3 | COc1cc(Nc2ncc(F)c(Nc3ccc4c(n3)NC(=O)C(C)(C)O4)n2)cc(OC)c1OC [tamatinib] | 1.03 | 1.04 | 1.03 | 1.06 | – | Resistant | 1.07 | Resistant | 1.09 | Resistant | 1.09 | Sensitive | 1.00 | – | – | – | – | –
4 | C/C=C(/C)C(=O)O[C@H]1C(C)=C2[C@H]([C@@H]1OC(=O)CCCCCCC)[C@@](C)(OC(C)=O)C[C@H](OC(=O)CCC)[C@@]1(O)[C@H]2OC(=O)[C@@]1(C)O [thapsigargin] | – | – | – | – | – | Sensitive | – | – | – | – | – | – | – | Resistant | – | – | – | –
5 | CC1(C)CCC(CN2CCN(c3ccc(C(=O)NS(=O)(=O)c4ccc(NCC5CCOCC5)c([N+](=O)[O-])c4)c(Oc4cnc5[nH]ccc5c4)c3)CC2)=C(c2ccc(Cl)cc2)C1 [venetoclax] | – | – | – | 0.45 | – | – | – | – | – | – | – | Resistant | 0.54 | – | – | – | – | –
6 | O=C(CCCCCCC(=O)Nc1ccccc1)NO [vorinostat] | – | – | – | – | – | – | – | Sensitive | – | – | – | – | – | – | – | – | – | –
7 | dasatinib | – | 0.72 | 0.70 | 0.79 | 0.75 | – | – | Resistant | 0.87 | Resistant | 0.89 | Sensitive | 0.64 | Sensitive | 0.46 | 0.73 | Resistant | 0.90
8 | fludarabine | – | 0.93 | – | – | – | – | – | Sensitive | 0.82 | – | – | – | – | – | – | – | – | –

Reference: patent US20230287510A1, “COMPOSITIONS, PANELS, AND METHODS FOR CHARACTERIZING CHRONIC LYMPHOCYTIC LEUKEMIA” (The Broad Institute, Inc., priority 2020, published 2023)
